# Experimental data as given in patent US20100184815A1 (priority 2008, published 2010).
# Like-named read-outs stand apart in the source and are kept apart here.
# What was measured:
# Gal-4 hPPARα = target: T1, Gal-4 hPPARα (Homo sapiens, UniProt Q07869); experiment: Gal4-hPPARα transient transfection reporter assay in Cos cells; assay type: cell-based; settings: luciferase reporter, 24 hours with compound, scale 1-5, read-out: Gal-4 hPPAR α EC50 (scaled number)
# T1 construct: Plasmids pGal4-hPPARα, pGal4-hPPARγ, pGal4-hPPARδ and pG5-TK-pGL3 were constructed as previously described by Staels, Bart, et al., Nature 1998 Jun; 25
# T1 sequence (Q07869 200-468 limits assumed): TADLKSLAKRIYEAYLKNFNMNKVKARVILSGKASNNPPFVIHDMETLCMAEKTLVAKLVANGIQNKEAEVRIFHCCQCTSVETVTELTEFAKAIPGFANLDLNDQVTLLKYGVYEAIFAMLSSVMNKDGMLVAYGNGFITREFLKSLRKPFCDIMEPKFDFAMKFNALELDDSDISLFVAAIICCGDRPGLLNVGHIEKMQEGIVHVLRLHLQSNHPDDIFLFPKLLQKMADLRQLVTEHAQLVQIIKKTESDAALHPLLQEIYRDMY
# How it was run: (§1)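 Cos cells transiently co-transfected with Gal4-hPPAR expression plasmid, pG5-TK-pGL3 luciferase reporter and β-galactosidase control, then treated 24 h with increasing compound concentrations in DMEM containing 0.2% FCS. Luciferase normalised to β-galactosidase; EC50 from curve fit, at least three experiments.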
# Gal-4 hPPARγ = target: T2, Gal-4 hPPARγ (Homo sapiens, UniProt P37231); experiment: Gal4-hPPARγ transient transfection reporter assay in Cos cells; assay type: cell-based; settings: luciferase reporter, 24 hours with compound, scale 1-5, read-out: Gal-4 hPPAR γ EC50 (scaled number)
# T2 construct: Plasmids pGal4-hPPARα, pGal4-hPPARγ, pGal4-hPPARδ and pG5-TK-pGL3 were constructed as previously described by Staels, Bart, et al., Nature 1998 Jun; 25
# T2 sequence (P37231 238-505 limits assumed): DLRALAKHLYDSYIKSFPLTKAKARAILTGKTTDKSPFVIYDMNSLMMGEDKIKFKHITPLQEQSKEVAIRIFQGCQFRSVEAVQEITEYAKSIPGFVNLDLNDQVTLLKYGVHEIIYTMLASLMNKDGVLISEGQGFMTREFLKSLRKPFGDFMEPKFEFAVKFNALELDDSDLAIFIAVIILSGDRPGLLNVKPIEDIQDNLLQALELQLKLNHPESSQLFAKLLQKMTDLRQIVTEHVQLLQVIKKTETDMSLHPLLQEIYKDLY
# How it was run: as §1
# Gal-4 hPPARβ/δ = target: T3, Gal-4 hPPARβ/δ (Homo sapiens, UniProt Q03181); experiment: Gal4-hPPARδ transient transfection reporter assay in Cos cells; assay type: cell-based; settings: luciferase reporter, 24 hours with compound, scale 1-5, read-out: Gal-4 hPPAR β/δ EC50 (scaled number)
# T3 construct: Plasmids pGal4-hPPARα, pGal4-hPPARγ, pGal4-hPPARδ and pG5-TK-pGL3 were constructed as previously described by Staels, Bart, et al., Nature 1998 Jun; 25
# T3 sequence (Q03181 171-441 limits assumed): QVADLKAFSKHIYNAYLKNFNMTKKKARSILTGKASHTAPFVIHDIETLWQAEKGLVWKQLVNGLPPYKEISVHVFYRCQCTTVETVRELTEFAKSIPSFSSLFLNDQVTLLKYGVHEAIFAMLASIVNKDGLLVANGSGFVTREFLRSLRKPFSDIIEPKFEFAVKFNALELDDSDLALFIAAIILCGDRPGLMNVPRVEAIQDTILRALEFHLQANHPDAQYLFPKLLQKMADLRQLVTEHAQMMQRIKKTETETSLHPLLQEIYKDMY
# How it was run: as §1
# pig liver esterase = experiment: Metabolism studies using pig liver esterase; assay type: in vitro ADME; settings: 37° C.
# [1] = pig liver esterase in human plasma protein solution
# [2] = pig liver esterase in phosphate buffer pH 7.4, no plasma, read-out: Pig Liver Esterase (t1/2 min.) (−) Plasma
# [3] = pig liver esterase in human plasma protein solution, read-out: Pig Liver Esterase (t1/2 min.) (+) Plasma
EC50 (Gal-4 hPPARα) [nM],EC50 (Gal-4 hPPARγ) [nM],EC50 (Gal-4 hPPARβ/δ) [nM],Pig Liver Esterase (t1/2 min.) (+) Plasma (pig liver esterase; [1]),half-life at 4.9 µM (pig liver esterase; [2]) [min],half-life at 4.9 µM (pig liver esterase; [3]) [min],Structure (SMILES)
1 to 50,51 to 200,> 1000,Stable,45,,"CCCCCCCCn1c(COC(=O)c2ccc(OC(C)(C)C(=O)O)c(OC)c2)nn(Cc2ccc(C)cc2)c1=O [Compound 186, 2-(2-methoxy-4-(((1-(4-methylbenzyl)-4-octyl-5-oxo-4,5-dihydro-1H-1,2,4-triazol-3-yl)methoxy)carbonyl)phenoxy)-2-methylpropanoic acid]"
1 to 50,> 1000,> 1000,,14,126,"CC(C)(Sc1ccc(C(=O)OCc2cn(Cc3ccc(C(C)(C)C)cc3)nn2)cc1)C(=O)O [Compound 69, 2-(4-(((1-(4-tert-butylbenzyl)-1H-1,2,3-triazol-4-yl)methoxy)carbonyl)phenylthio)-2-methylpropanoic acid]"
1 to 50,> 1000,> 1000,Stable,27,,"CCCCCCCn1c(COC(=O)c2ccc(OC(C)(C)C(=O)O)cc2)nn(Cc2ccc(C)cc2)c1=O [Compound 192, 2-(4-(((4-heptyl-1-(4-methylbenzyl)-5-oxo-4,5-dihydro-1H-1,2,4-triazol-3-yl)methoxy)carbonyl)phenoxy)-2-methylpropanoic acid]"
1 to 50,> 1000,> 1000,,31,89,"Cc1ccc(Cn2cc(COC(=O)c3ccc(SC(C)(C)C(=O)O)cc3)nn2)cc1 [Compound 60, 2-methyl-2-(4-(((1-(4-methylbenzyl)-1H-1,2,3-triazol-4-yl)methoxy)carbonyl)phenylthio)propanoic acid]"
51 to 200,> 1000,> 1000,Stable,30,,"CCCCCCCCn1c(COC(=O)c2ccc(OC(C)(C)C(=O)O)cc2)nn(Cc2ccc(C)cc2)c1=O [Compound 152, 2-methyl-2-(4-(((1-(4-methylbenzyl)-4-octyl-5-oxo-4,5-dihydro-1H-1,2,4-triazol-3-yl)methoxy)carbonyl)phenoxy)propanoic acid]"
51 to 200,> 1000,> 1000,,< 5,61,"CCCc1nn(Cc2ccc(C(F)(F)F)cc2)cc1COC(=O)c1ccc(SC(C)(C)C(=O)O)cc1 [Compound 12, 2-methyl-2-(4-(((3-propyl-1-(4-(trifluoromethyl)benzyl)-1H-pyrazol-4-yl)methoxy)carbonyl)phenylthio)propanoic acid]"
